Assay results taken from US8247351B2, “Insecticidal compositions having improved effect” (Bayer Cropscience AG, priority 2005, dated 2012).

Key:
Format in all cases: in vivo
Aphis gossypii [1] = test: Aphis gossypii test, Example G (sprayed to runoff, ammonium salt plus penetrant)
Description: (§1) Solvent: 7 parts by weight dimethylformamide
(§2) Emulsifier: 2 parts by weight alkylaryl polyglycol ether
An appropriate preparation of active ingredient is prepared by mixing 1 part by weight of active ingredient with the stated amounts of solvent and emulsifier and diluting the concentrate with emulsifier-containing water to the desired concentration. For the application with ammonium salts or phosphonium salts and penetrants (rapeseed oil methyl esters 500 EW), they are each added in a concentration of 1000 ppm a.i. to the spray liquor.
(§3) Cotton plants (Gossypium hirsutum) heavily infested by the cotton aphid (Aphis gossypii) are sprayed to runoff with the preparation of active ingredient at the desired concentration.
(§4) After the desired time the destruction in % is ascertained. 100% means that all of the aphids have been killed; 0% means than no aphids were killed.

Aphis gossypii [2] = test: Aphis gossypii test, Example E (sprayed to runoff, ammonium salt boosting)
Description: as §1, §2
An appropriate preparation of active ingredient is prepared by mixing 1 part by weight of active ingredient with the stated amounts of solvent and emulsifier and diluting the concentrate with emulsifier-containing water to the desired concentration. For the application with ammonium salts or phosphonium salts, these salts are added in a concentration of 1000 ppm to the spray liquor.
as §3, §4

Myzus persicae [3] = test: Myzus persicae test, Example D (sprayed to runoff, ammonium salt boosting)
Description: as §1, §2
An appropriate preparation of active ingredient is prepared by mixing 1 part by weight of active ingredient with the stated amounts of solvent and emulsifier and diluting the concentrate with water to the desired concentration. For the application with ammonium salts or phosphonium salts, these salts are added in a concentration of 1000 ppm to the spray liquor.
Paprika plants (Capsicum annum) heavily infested by the green peach aphid (Myzus persicae) are treated by being. sprayed to runoff with the preparation of active ingredient at the desired concentration. After the desired time the destruction in % is ascertained. 100% means that all of the animals have been killed; 0% means that no animals have been killed.

Myzus persicae [4] = test: Myzus persicae test, Example F (sprayed to runoff, ammonium salt plus penetrant)
Description: as §1, §2
An appropriate preparation of active ingredient is prepared by mixing 1 part by weight of active ingredient with the stated amounts of solvent and emulsifier and diluting the concentrate with water to the desired concentration. For the application with ammonium salts or phosphonium salts and penetrant (rapeseed oil methyl ester 500 EW), they are each added in a concentration of 1000 ppm to the spray liquor.
After the desired time the destruction in % is ascertained. 100% means that all of the animals have been killed; 0% means that no animals have been killed.

[5] = 0.8 ppm active ingredient, +AS (1000 ppm)
[6] = 0.8 ppm active ingredient, +RME (1000 ppm)
[7] = 0.8 ppm active ingredient, +RME +AS (each 1000 ppm)
[8] = 0.8 ppm active ingredient, no additive
[9] = 4 ppm active ingredient, +AS (1000 ppm)
[10] = 4 ppm active ingredient, no additive
[11] = 20 ppm active ingredient, +AS (1000 ppm)
[12] = 20 ppm active ingredient, no additive
[13] = 4 ppm active ingredient, +RME (1000 ppm)
[14] = 4 ppm active ingredient, +RME +AS (each 1000 ppm)
[15] = 20 ppm active ingredient, +RME (1000 ppm)
[16] = 20 ppm active ingredient, +RME +AS (each 1000 ppm)

| SMILES | Degree of destruction/% after 6 days (Aphis gossypii [1]; [5]) | Degree of destruction/% after 6 days (Aphis gossypii [1]; [6]) | Degree of destruction/% after 6 days (Aphis gossypii [1]; [7]) | Degree of destruction/% after 6 days (Aphis gossypii [1]; [8]) | Degree of destruction/% after 6 days (Aphis gossypii [2]; [5]) | Degree of destruction/% after 6 days (Aphis gossypii [2]; [8]) | Degree of destruction/% after 6 days (Aphis gossypii [2]; [9]) | Degree of destruction/% after 6 days (Aphis gossypii [2]; [10]) | Degree of destruction/% after 6 days (Myzus persicae [3]; [11]) | Degree of destruction/% after 6 days (Myzus persicae [3]; [12]) | Degree of destruction/% after 6 days (Myzus persicae [4]; [9]) | Degree of destruction/% after 6 days (Myzus persicae [4]; [13]) | Degree of destruction/% after 6 days (Myzus persicae [4]; [14]) | Degree of destruction/% after 6 days (Myzus persicae [4]; [10]) | Degree of destruction/% after 6 days (Myzus persicae [4]; [5]) | Degree of destruction/% after 6 days (Myzus persicae [4]; [6]) | Degree of destruction/% after 6 days (Myzus persicae [4]; [7]) | Degree of destruction/% after 6 days (Myzus persicae [4]; [8]) | Degree of destruction/% after 6 days (Aphis gossypii [2]; [11]) | Degree of destruction/% after 6 days (Aphis gossypii [2]; [12]) | also measured |
| --- | --- | --- | --- | --- | --- | --- | --- | --- | --- | --- | --- | --- | --- | --- | --- | --- | --- | --- | --- | --- | --- |
| COc1cc(C)cc(Cl)c1C1=C(O)C2(CCC(OC)CC2)OC1=O (centres unmarked) [Example I-2-a-4] | 45% | 45% | 70% | 10% | 45% | 10% | 90% | 70% | 80% | 60% | 0% | 0% | 70% | 0% | – | – | – | – | – | – | – |
| Cc1cc(C)c(C2=C(O)C3(CCC(C)CC3)NC2=O)c(C)c1 (centres unmarked) [Example I-1-a-8] | 40% | 20% | 60% | 0% | 40% | 0% | – | – | – | – | – | – | – | – | 55% | 60% | 80% | 20% | – | – | Degree of destruction/% after 6 days (Myzus persicae [3]; [5]): 55%; Degree of destruction/% after 6 days (Myzus persicae [3]; [8]): 20% |
| CO[C@H]1CC[C@]2(CC1)NC(=O)C(c1c(C)cc(I)cc1C)=C2O [Example I-1-a-7] | 45% | 50% | 75% | 35% | – | – | 90% | 55% | – | – | – | – | – | – | 10% | 35% | 75% | 0% | 99% | 85% | Degree of destruction/% after 6 days (Aphis gossypii [1]; [9]): 90%; Degree of destruction/% after 6 days (Aphis gossypii [1]; [13]): 85%; Degree of destruction/% after 6 days (Aphis gossypii [1]; [14]): 95%; Degree of destruction/% after 6 days (Aphis gossypii [1]; [10]): 55%; Degree of destruction/% after 6 days (Myzus persicae [3]; [9]): 80%; Degree of destruction/% after 6 days (Myzus persicae [3]; [10]): 40% |
| Cc1cc(Cl)cc(C)c1C1=C(O)C2(CCC3(CC2)OCCO3)NC1=O [Example I-1-a-4] | 65% | 30% | 80% | 15% | 65% | 15% | 85% | 60% | 98% | 95% | 65% | 95% | 98% | 40% | 5% | 0% | 20% | 0% | – | – | Degree of destruction/% after 6 days (Myzus persicae [3]; [9]): 65%; Degree of destruction/% after 6 days (Myzus persicae [3]; [10]): 40% |
| COC1CCC2(CC1)NC(=O)C(c1cc(C)ccc1Br)=C2O (centres unmarked) [Example I-1-a-11] | – | – | – | – | – | – | 35% | 5% | 70% | 0% | 5% | 55% | 99% | 0% | – | – | – | – | 80% | 45% | Degree of destruction/% after 6 days (Aphis gossypii [1]; [9]): 35%; Degree of destruction/% after 6 days (Aphis gossypii [1]; [13]): 45%; Degree of destruction/% after 6 days (Aphis gossypii [1]; [14]): 80%; Degree of destruction/% after 6 days (Aphis gossypii [1]; [10]): 5% |
| COC1CCC2(CC1)NC(=O)C(c1c(Cl)cc(Cl)c(C)c1Cl)=C2O (centres unmarked) [Example I-1-a-12] | 45% | 45% | 65% | 5% | 45% | 5% | 95% | 65% | 65% | 55% | 5% | 0% | 50% | 0% | – | – | – | – | – | – | Degree of destruction/% after 6 days (Myzus persicae [4]; [11]): 65%; Degree of destruction/% after 6 days (Myzus persicae [4]; [15]): 70%; Degree of destruction/% after 6 days (Myzus persicae [4]; [16]): 98%; Degree of destruction/% after 6 days (Myzus persicae [4]; [12]): 55% |
| Cc1ccc(-c2ccc(Cl)cc2)cc1C1=C(O)C(C)(C)C(C)(C)OC1=O [Example I-10-a-1] | – | – | – | – | – | – | – | – | 25% | 0% | 5% | 20% | 55% | 0% | – | – | – | – | 45% | 0% | Degree of destruction/% after 6 days (Aphis gossypii [1]; [11]): 45%; Degree of destruction/% after 6 days (Aphis gossypii [1]; [15]): 45%; Degree of destruction/% after 6 days (Aphis gossypii [1]; [16]): 70%; Degree of destruction/% after 6 days (Aphis gossypii [1]; [12]): 0%; Degree of destruction/% after 6 days (Myzus persicae [4]; [11]): 25%; Degree of destruction/% after 6 days (Myzus persicae [4]; [15]): 65%; Degree of destruction/% after 6 days (Myzus persicae [4]; [16]): 99%; Degree of destruction/% after 6 days (Myzus persicae [4]; [12]): 0% |
| COc1cc(C)cc(C)c1C1=C(O)C2(CCC(OC)CC2)OC1=O (centres unmarked) [Example I-2-a-2] | 70% | 50% | 95% | 30% | 70% | 30% | 95% | 85% | – | – | – | – | – | – | 25% | 15% | 99% | 0% | – | – | Degree of destruction/% after 6 days (Myzus persicae [3]; [5]): 25%; Degree of destruction/% after 6 days (Myzus persicae [3]; [8]): 0%; Degree of destruction/% after 6 days (Myzus persicae [3]; [9]): 90%; Degree of destruction/% after 6 days (Myzus persicae [3]; [10]): 65% |
